From patent US20070203066A1, “Compositions and methods for inhibiting cellular proliferation” (priority 2005, published 2007)
Primed or numbered codes have the meaning given here. No end group written: not given here. Ida = iminodiacetic acid linker, its two carboxyls bind the Lys side-chain amines of two peptides, giving a homodimer; Ida(3) = iminodiacetic acid linker, Lys side-chain amines bound to its two carboxyl groups; Ida(4) = iminodiacetic acid linker (dimerization linker bound to lysine side chain); Ida″ = iminodiacetic acid linker bound to the Lys side-chain amine, forming a dimer

Tested on: HUVECs
Type: cell-based
Conditions: 48 h
Method in brief: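 Proliferation read-out: BrdU incorporation after 48-hour culture (37 ° C, 5% CO2) with graded peptide doses. Cells were in EBM with 2% FCS at 5,000 per well, driven by VEGF (5 ng/ml) or bFGF (10 ng/ml), added after ≥12-hour attachment.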

Molecule `CC[C@H](C)[C@H](NC(=O)[C@H](CCCNC(=N)N)NC(=O)[C@@H](NC(=O)[C@H](Cc1c[nH]cn1)NC(=O)[C@H](CCC(N)=O)NC(=O)[C@H](CCCNC(=N)N)NC(=O)[C@H](CCCNC(=N)N)NC(=O)[C@H](Cc1c[nH]cn1)NC(=O)[C@H](Cc1c[nH]cn1)NC(=O)[C@H](CCCNC(=N)N)NC(C)=O)C(C)C)C(=O)N[C@@H](Cc1ccc(O)cc1)C(=O)N[C@@H](Cc1ccccc1)C(=O)N[C@@H](CCCCNC(=O)CN(CC(=O)NCCCC[C@H](NC(=O)[C@H](Cc1ccccc1)NC(=O)[C@H](Cc1ccc(O)cc1)NC(=O)[C@@H](NC(=O)[C@H](CCCNC(=N)N)NC(=O)[C@@H](NC(=O)[C@H](Cc1c[nH]cn1)NC(=O)[C@H](CCC(N)=O)NC(=O)[C@H](CCCNC(=N)N)NC(=O)[C@H](CCCNC(=N)N)NC(=O)[C@H](Cc1c[nH]cn1)NC(=O)[C@H](Cc1c[nH]cn1)NC(=O)[C@H](CCCNC(=N)N)NC(C)=O)C(C)C)[C@@H](C)CC)C(N)=O)C(=O)CCNC(=O)OC(C)(C)C)C(N)=O` [Peptide 333] has an IC50 of less than 10 µM.

Same assay, conditions: HUVEC proliferation, bFGF at 10 ng/ml or VEGF at 5 ng/ml, 48 hours, BrdU incorporation; read-out: IC50 on HUVECs

Going from “349 (Ac-ARRRRQRVAIYPK-NH2; not fully specified (residue 13); also: homodimer of residues 1-13 via Ida linker on Lys13 side chain) [compound 349]” to “420 (Ac-ARRRRQSVAIYFK; not fully specified (residue 13, C-terminus); also: homodimer of residues 1-13 via Ida linker on K13 side chain) [compound 420]”, the IC50 falls from greater than 30 µM to less than 10 µM. The second is the more potent here.

Going from “392 (Ac-ARRRRQAVPIYFK; not fully specified (residue 13, C-terminus); also: homodimer of residues 1-13 via Ida linker at Lys13 side chain) [compound 392]” to “509 (Ac-ARRRRARVAIYFK; not fully specified (C-terminus); also: homodimer via Ida linker at Lys13 side chain) [compound 509]”, the IC50 falls from greater than 30 µM to less than 10 µM.

Compared with “221 (Ac-RRRRAQAVAIIF; also: dimer: Phe C-termini joined via Lys linker) [compound 221]”, “365 (Ac-ARRRRQRVATYFK-NH2; not fully specified (residue 13); also: homodimer of residues 1-13 via Ida linker on K13 side chain) [compound 365]” is higher in IC50: less than 10 µM for the first, greater than 30 µM for the second.

“299 (Ac-RRRRRQAVRIGIGFK-NH2; also: homodimer: Lys15 side chain bound to Ida linker) [compound 299]” and “273 (Ac-RARRRQAVAITFK-NH2; not fully specified (residue 13); also: homodimer: Lys13 side chain bound to Ida linker) [compound 273]” cannot be ordered by IC50: less than 10 µM for the first, less than 10 µM for the second.

First: KRKRKKQRVKIAYEEIFV [compound 61]
Second: KTKRKAAKQRVKIAYEEIFVQNM [compound 54]
The IC50 of the first is lower: 10 to 30 µM for the first, greater than 30 µM for the second. The first is the more potent here.

First: 248 (Ac-RRRRRQHVHIIF; also: homodimer: C-termini of two chains bound to the two amines of a Lys linker) [compound 248]
Second: KTKRKRKKQRVKAIFVQNM [compound 111]
The IC50 of the first is lower: less than 10 µM for the first, 10 to 30 µM for the second. The first is the more potent here.

Going from “411 (Ac-TRRRRQAVAIYFK; not fully specified (residue 13, C-terminus); also: homodimer via Ida linker on Lys side chains, linker at 13 via Ida, other end not in the chain) [compound 411]” to KTKRKRKKQRVKIAYEENM [compound 41], the IC50 rises from less than 10 µM to greater than 30 µM. The first is the more potent here.

KTKRKRKAQRVKIIFVQNM [compound 116] and KTKRKRKKQRVKIAYEEIFV [compound 15] cannot be ordered by IC50: less than 10 µM for the first, less than 10 µM for the second.

“197 (Ac-RAARRQRVRIIF; also: dimer: C-terminal Phe bound to an amino group of a Lys linker, 2 chains per Lys) [compound 197]” and “384 (Ac-ARRRRQGVAIYFK-NH2; not fully specified (residue 13); also: homodimer via Ida linker on Lys13 side chain, Ida amine Boc) [compound 384]” cannot be ordered by IC50: less than 10 µM for the first, less than 10 µM for the second.

First: KNKSKGVVKIQRRKAPFVVYESIN [compound 7]
Second: TKRKRKKQRVKIAYEEIFVKNM [compound 2]
The IC50 of the first is higher: greater than 30 µM for the first, 10 to 30 µM for the second. The second is the more potent here.

“271 (Ac-ARRRRQRVAIYF; also: homodimer via Lys linker, Phe C-termini bound to the two Lys amino groups) [compound 271]” and “489 (Ac-PRRRPQAVAIK(Ida″)F; also: homodimer via Ida linker on Lys11 side chain) [compound 489]” cannot be ordered by IC50: less than 10 µM for the first, less than 10 µM for the second.

Going from “402 (Ac-FRRRRQAVAIYFK(Ida(3))-NH2; also: homodimer via Ida linker on Lys13 side chain, Ida amine Boc) [compound 402]” to KTKRKRKKQRVKIAYEQNM [compound 40], the IC50 rises from less than 10 µM to greater than 30 µM. The first is the more potent here.

Compared with “389 (Ac-ARRRRQAVGIYFK-NH2; not fully specified (residue 13); also: homodimer via Ida linker on Lys13 side chain, Ida amine Boc) [compound 389]”, “449 (Ac-RRRRRAAAAAAAK(Ida(4)); not fully specified (C-terminus); also: homodimer via Ida linker at K13) [compound 449]” is higher in IC50: less than 10 µM for the first, greater than 30 µM for the second. The first is the more potent here.

First: KTKRKRKKQRVKIAFVQNM [compound 110]
Second: 334 (Ac-ARRRRQRVAIYFK; not fully specified (residue 13, C-terminus); also: homodimer via Ida linker on Lys13 side chain, acetate salt) [compound 334]
The IC50 of the first is higher: 10 to 30 µM for the first, less than 10 µM for the second. The second is the more potent here.

First: 220 (Ac-RRRARQAVAIIF; also: dimer: Phe C-termini joined via Lys linker) [compound 220]
Second: 481 (Ac-PRRRYQAVAIYFK; not fully specified (residue 13, C-terminus); also: homodimer via Ida linker on Lys13 side chain) [compound 481]
The IC50 of the first is lower: less than 10 µM for the first, 10 to 30 µM for the second.

KTKRKRKKQRVKRAYEEIF [compound 136] and RKKQRVKIAYEEIFVKNM [compound 11] cannot be ordered by IC50: greater than 30 µM for the first, greater than 30 µM for the second.

Compared with “393 (Ac-ARRRRQAVQIYFK; not fully specified (residue 13, C-terminus); also: homodimer of residues 1-13 via Ida linker at Lys13 side chain) [compound 393]”, “492 (Ac-ARRRNQSVAIKF; not fully specified (residue 11); also: homodimer: Lys11 side chain bound to Ida linker (Boc on Ida N)) [compound 492]” is higher in IC50: less than 10 µM for the first, 10 to 30 µM for the second.

First: 486 (Ac-ARRRRQSVAIKF; not fully specified (residue 11); also: homodimer: Lys11 side chain bound to Ida linker (Boc on Ida N)) [compound 486]
Second: 477 (Ac-PRRRSQAVAIYFK(Ida(3)); not fully specified (C-terminus); also: homodimer via Ida linker on Lys13 side chain) [compound 477]
The IC50 of the first is lower: less than 10 µM for the first, 10 to 30 µM for the second.

First: KTKRKRKKQRVKI [compound 38]
Second: 308 (Ac-RRRRRQAVK(Ida)IIFV; also: homodimer via Ida linker on Lys9 side chain) [compound 308]
The IC50 of the first is higher: greater than 30 µM for the first, less than 10 µM for the second.
